ChEMBL document CHEMBL5260810, “Inhibition of bromodomain-containing protein 9 for the prevention of epigenetically-defined drug resistance” (Bioorg Med Chem Lett, 2017)
Calls of active or inactive are those of the source. The rule behind the calls is not given here.

Key:
HGC-27 = assay: Cytotoxicity against human HGC-27 cells measured after 8 days; format: functional, cell-based; conditions: HGC-27, 192 h
[1] = Cytotoxicity against human NCE-G 61 cells measured after 8 days; format: functional, cell-based; conditions: NCE-G 61, 192 h
SK-MEL3 = assay: Cytotoxicity against human SK-MEL3 cells measured after 8 days; format: functional, cell-based; conditions: SK-MEL3, 192 h
[2] = Cytotoxicity against human UCSD-242L cells measured after 8 days; format: functional, cell-based; conditions: 192 h
[3] = Cytotoxicity against human MT-3 cells measured after 8 days; format: functional, cell-based; conditions: MT-3, 192 h
[4] = Cytotoxicity against human HSC-5 cells measured after 8 days; format: functional, cell-based; conditions: HSC-5, 192 h
NCI-H2170 = assay: Cytotoxicity against human NCI-H2170 cells measured after 8 days; format: functional, cell-based; conditions: NCI-H2170, 192 h
A549 = assay: Antiproliferative activity against human A549 cells assessed as reduction in colony formation up to 20 uM supplemented with fresh medium containing compound every 3 days for 9 days by MTT staining based clonogenic assay; format: functional, cell-based; conditions: time 9.0 day
COR-L279 = assay: Cytotoxicity against human COR-L279 cells measured after 8 days; format: functional, cell-based; conditions: COR-L279, 192 h
[5] = Cytotoxicity against human NCE-G 22 cells measured after 8 days; format: functional, cell-based; conditions: NCE-G 22, 192 h
TOV112D [6] = assay: Cytotoxicity against human TOV112D cells measured after 8 days; format: functional, cell-based; conditions: 192 h
CFPAC-1 = assay: Cytotoxicity against human CFPAC-1 cells measured after 8 days; format: functional, cell-based; conditions: CFPAC-1, 192 h
ES-2 = assay: Cytotoxicity against human ES2 cells measured after 3 days; format: functional, cell-based; conditions: ES-2, 72 h
SK-MES-1 = assay: Cytotoxicity against human SK-MES-1 cells measured after 3 days; format: functional, cell-based; conditions: SK-MES-1, 72 h
TOV112D [7] = assay: Cytotoxicity against human TOV112D cells measured after 3 days; format: functional, cell-based; conditions: 72 h
[8] = Cytotoxicity against human MOLP8 cells measured after 3 days; format: functional, cell-based; conditions: MOLP-8, 72 h
BT-474 = assay: Cytotoxicity against human BT-474 cells measured after 3 days; format: functional, cell-based; conditions: BT-474, 72 h
PC-9 [9] = assay: Antiproliferative activity against human PC-9 cells assessed as reduction in colony formation at 1 uM supplemented with fresh medium containing compound every 3 days by MTT staining based assay; format: functional, cell-based; conditions: time 9.0 day
[10] = Cytotoxicity against human NTERA-2 cells after 8 days; format: functional, cell-based; conditions: NTERA2, 192 h
[11] = Cytotoxicity against human KMM-1 cells measured after 3 days; format: functional, cell-based; conditions: KMM-1, 72 h
SUP-B15 = assay: Cytotoxicity against human SUP-B15 cells measured after 3 days; format: functional, cell-based; conditions: SUP-B15, 72 h
HLE = assay: Cytotoxicity against human HLE cells measured after 3 days; format: functional, cell-based; conditions: 72 h
U-937 = assay: Cytotoxicity against human U-937 cells measured after 3 days; format: functional, cell-based; conditions: U-937, 72 h
[12] = Cytotoxicity against human 59M cells measured after 3 days; format: functional, cell-based; conditions: 72 h
OVCAR-8 = assay: Cytotoxicity against human OVCAR-8 cells measured after 3 days; format: functional, cell-based; conditions: OVCAR-8, 72 h
[13] = biological target: Bromodomain-containing protein 4 (Homo sapiens, UniProt O60885); assay: Binding affinity to BRD4 in human PC-9 cell lysate assessed as increase in thermal stabilization at 2 uM at 38 to 71 degreeC measured after 30 mins by CETSA; format: subcellular
PC-9 [14] = assay: Cytotoxicity against human PC-9 cells assessed as growth inhibition at 2 uM supplemented with fresh medium containing compound every 3 days for 9 days by Beckman Coulter counting method; format: functional, cell-based; conditions: time 9.0 day
NCI-H1793 = assay: Cytotoxicity against human NCI-H1793 cells measured after 8 days; format: functional, cell-based; conditions: NCI-H1793, 192 h
[15] = Cytotoxicity against human HCC1428 cells measured after 3 days; format: functional, cell-based; conditions: HCC1428, 72 h
BJAB = assay: Cytotoxicity against human BJAB cells measured after 3 days; format: functional, cell-based; conditions: 72 h
[16] = Cytotoxicity against human HCC1493 cells measured after 3 days; format: functional, cell-based; conditions: HCC1493, 72 h
[17] = Cytotoxicity against human OCI-M1 cells measured after 3 days; format: functional, cell-based; conditions: OCI-M1, 72 h
[18] = Cytotoxicity against human Li-7 cells measured after 3 days; format: functional, cell-based; conditions: Li-7, 72 h
HCC1954 = assay: Antiproliferative activity against human HCC1954 cells assessed as reduction in colony formation at 1 uM supplemented with fresh medium containing compound every 3 days by MTT staining based assay; format: functional, cell-based; conditions: time 9.0 day
[19] = Cytotoxicity against human NCE-G 120 cells measured after 3 days; format: functional, cell-based; conditions: NCE-G 120, 72 h
[20] = Cytotoxicity against human KPL-4 cells measured after 3 days; format: functional, cell-based; conditions: KPL4, 72 h
[21] = Cytotoxicity against human ONCO-DG-1 cells measured after 3 days; format: functional, cell-based; conditions: ONCO-DG-1, 72 h
SCC-3 = assay: Cytotoxicity against human SCC-3 cells measured after 3 days; format: functional, cell-based; conditions: SCC-3, 72 h
BT-20 = assay: Cytotoxicity against human BT-20 cells measured after 3 days; format: functional, cell-based; conditions: BT-20, 72 h
EKVX = assay: Cytotoxicity against human EKVX cells after 8 days; format: functional, cell-based; conditions: 192 h
[22] = Cytotoxicity against human HCC193 cells after 8 days; format: functional, cell-based; conditions: HCC193, 192 h
SU-DHL-5 = assay: Cytotoxicity against human SU-DHL-5 cells measured after 3 days; format: functional, cell-based; conditions: SU-DHL-5, 72 h
CAMA-1 = assay: Cytotoxicity against human CAMA-1 cells measured after 3 days; format: functional, cell-based; conditions: CAMA-1, 72 h
SET-2 = assay: Cytotoxicity against human SET2 cells measured after 3 days; format: functional, cell-based; conditions: SET-2, 72 h
[23] = Cytotoxicity against human MOR cells measured after 3 days; format: functional, cell-based; conditions: 72 h
PLC-PRF-5 = assay: Cytotoxicity against human PLC-PRF-5 cells measured after 3 days; format: functional, cell-based; conditions: PLC-PRF-5, 72 h
Daudi = assay: Cytotoxicity against human Daudi cells measured after 3 days; format: functional, cell-based; conditions: 72 h
[24] = Cytotoxicity against human NCI-H820 cells measured after 8 days; format: functional, cell-based; conditions: NCI-H820, 192 h
NCI-H1573 = assay: Cytotoxicity against human NCI-H1573 cells after 8 days; format: functional, cell-based; conditions: NCI-H1573, 192 h
[25] = Cytotoxicity against human NCE-G 118 cells measured after 3 days; format: functional, cell-based; conditions: NCE-G 118, 72 h
KARPAS-422 = assay: Cytotoxicity against human KARPAS-422 cells measured after 3 days; format: functional, cell-based; conditions: KARPAS-422, 72 h

In the case of `C/C=C/Cn1cc(-c2ccc(C(C)(C)O)cc2OC)c2cc[nH]c2c1=O`, the IC50 (HGC-27) is reported as 14.4 µM, the IC50 [1] is reported as 20 µM and the IC50 (SK-MEL3) is reported as 20 µM. It also gave an IC50 [2] of 20 µM, an IC50 [3] of 20 µM and an IC50 [4] of 20 µM. The IC50 (NCI-H2170) was 20 µM, the Activity (A549) was “inactive” and the IC50 (COR-L279) was 20 µM. The IC50 [5] was 20 µM, the IC50 (TOV112D [6]) was 20 µM and the IC50 (CFPAC-1) was 20 µM.

Work on `C/C=C/Cn1cc(-c2ccc(C(=O)N3CCOCC3)cc2)c2cc[nH]c2c1=O` yielded an IC50 (HGC-27) of 16.9 µM, an IC50 [1] of 20 µM and an IC50 (SK-MEL3) of 20 µM. For the same molecule, the IC50 [2] was 20 µM, the IC50 [3] was 20 µM and the IC50 [4] was 20 µM. For the same molecule, the IC50 (NCI-H2170) was 20 µM, the IC50 (COR-L279) was 20 µM and the IC50 [5] was 20 µM. The IC50 (TOV112D [6]) was 20 µM and the IC50 (CFPAC-1) was 20 µM.

`C/C=C/Cn1cc(-c2cc(OC)c(C(=O)N3CCOCC3)cc2OC)c2cc(C)[nH]c2c1=O` gave an IC50 (ES-2) of 5 µM, an IC50 (SK-MES-1) of 5 µM and an IC50 (TOV112D [7]) of 5 µM. The IC50 [8] was 5 µM, the IC50 (BT-474) was 5 µM and the Activity (PC-9 [9]) was “inactive”. For the same molecule, the IC50 [10] was 2 µM, the IC50 [11] was 5 µM and the IC50 (SUP-B15) was 5 µM. For the same molecule, the IC50 (HLE) was 5 µM, the IC50 (U-937) was 5 µM and the IC50 [12] was 5 µM. For the same molecule, the IC50 (OVCAR-8) was 5 µM, the Activity [13] was “inactive” and the Activity (PC-9 [14]) was “inactive”. For the same molecule, the IC50 (NCI-H1793) was 2 µM, the IC50 [15] was 5 µM and the IC50 (BJAB) was 5 µM. For the same molecule, the IC50 [16] was 5 µM, the IC50 [17] was 5 µM and the IC50 [18] was 5 µM. For the same molecule, the Activity (HCC1954) was “inactive”, the IC50 [19] was 5 µM and the IC50 [20] was 5 µM. It also gave an IC50 [21] of 5 µM, an IC50 (SCC-3) of 5 µM and an IC50 (BT-20) of 5 µM. The IC50 (EKVX) was 2 µM, the IC50 [22] was 2 µM and the IC50 (SU-DHL-5) was 5 µM. The IC50 (CAMA-1) was 5 µM, the IC50 (SET-2) was 5 µM and the IC50 [23] was 5 µM. It also gave an IC50 (PLC-PRF-5) of 5 µM, an IC50 (Daudi) of 5 µM and an IC50 [24] of 2 µM. For the same molecule, the IC50 (NCI-H1573) was 2 µM, the IC50 [25] was 5 µM and the IC50 (KARPAS-422) was 5 µM.
